According to ChEMBL document CHEMBL2346632, “A one-pot domino synthesis and discovery of highly functionalized dihydrobenzo[b]thiophenes as AChE inhibitors” (Bioorg Med Chem Lett, 2013):

Target: Acetylcholinesterase (Electrophorus electricus, UniProt O42275)
Test: Inhibition of electric eel AChE after 30 mins by Ellman's method

Acetylcholinesterase, sequence (O42275 whole entry): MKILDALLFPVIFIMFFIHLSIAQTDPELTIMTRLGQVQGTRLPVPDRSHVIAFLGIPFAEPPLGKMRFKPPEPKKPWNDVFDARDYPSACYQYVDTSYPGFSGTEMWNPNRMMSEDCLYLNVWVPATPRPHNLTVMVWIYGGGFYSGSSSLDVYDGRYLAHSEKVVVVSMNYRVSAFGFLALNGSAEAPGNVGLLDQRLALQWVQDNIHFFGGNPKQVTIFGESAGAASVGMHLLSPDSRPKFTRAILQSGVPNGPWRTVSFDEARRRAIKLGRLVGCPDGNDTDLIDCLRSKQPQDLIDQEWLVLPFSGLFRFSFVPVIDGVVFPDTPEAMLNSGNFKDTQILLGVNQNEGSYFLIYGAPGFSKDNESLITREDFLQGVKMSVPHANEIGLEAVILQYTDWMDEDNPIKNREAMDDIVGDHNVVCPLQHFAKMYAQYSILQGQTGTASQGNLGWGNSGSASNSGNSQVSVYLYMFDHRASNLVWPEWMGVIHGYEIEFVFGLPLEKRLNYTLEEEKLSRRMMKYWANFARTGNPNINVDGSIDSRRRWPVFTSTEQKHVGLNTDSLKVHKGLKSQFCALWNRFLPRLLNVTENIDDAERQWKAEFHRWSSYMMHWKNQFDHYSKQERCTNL

Row | SMILES | IC50 [µM]
1 | Cc1ccc(C2Cc3c(C#N)c(N)c(C#N)c(-c4ccc(Br)cc4)c3S2)cc1 (racemic) | 24.2
2 | N#Cc1c(N)c(C#N)c(-c2ccc(Cl)cc2)c2c1CC(c1ccccc1)S2 (racemic) | 29.2
3 | COc1ccc(-c2c(C#N)c(N)c(C#N)c3c2SC(c2ccc(Cl)cc2)C3)cc1 (racemic) | 26.6
4 | Cc1ccc(-c2c(C#N)c(N)c(C#N)c3c2SC(c2ccc(Cl)cc2)C3)cc1 (racemic) | 17.3
5 | COc1ccc(-c2c(C#N)c(N)c(C#N)c3c2SC(c2ccccc2)C3)cc1 (racemic) | 5.11
6 | Cc1ccc(C2Cc3c(C#N)c(N)c(C#N)c(-c4ccc(F)cc4)c3S2)cc1 (racemic) | 18.1
7 | Cc1ccc(-c2c(C#N)c(N)c(C#N)c3c2SC(c2ccc(C)cc2)C3)cc1 (racemic) | 4.24
8 | N#Cc1c(N)c(C#N)c(-c2ccc(Cl)cc2)c2c1CC(c1ccc(Cl)cc1)S2 (racemic) | 34.1
9 | CC(C)c1ccc(C2Cc3c(C#N)c(N)c(C#N)c(-c4ccc(Cl)cc4)c3S2)cc1 (racemic) | 48.3
10 | COc1ccc(C2Cc3c(C#N)c(N)c(C#N)c(-c4ccc(C)cc4)c3S2)cc1 (racemic) | 11.6
11 | CC(C)c1ccc(C2Cc3c(C#N)c(N)c(C#N)c(-c4ccc(F)cc4)c3S2)cc1 (racemic) | 44.2
12 | Cc1ccc(C2Cc3c(C#N)c(N)c(C#N)c(-c4ccc(Cl)cc4)c3S2)cc1 (racemic) | 13.6
13 | COc1ccc(-c2c(C#N)c(N)c(C#N)c3c2SC(c2ccc(OC)cc2)C3)cc1 (racemic) | 4.16
14 | N#Cc1c(N)c(C#N)c(-c2ccc(F)cc2)c2c1CC(c1ccccc1)S2 (racemic) | 32.3
15 | COc1ccc(-c2c(C#N)c(N)c(C#N)c3c2SC(c2ccc(C)cc2)C3)cc1 (racemic) | 11.3
16 | N#Cc1c(N)c(C#N)c(-c2ccc(Br)cc2)c2c1CC(c1ccc(Cl)cc1)S2 (racemic) | 41.3
17 | CC(C)c1ccc(-c2c(C#N)c(N)c(C#N)c3c2SC(c2ccccc2)C3)cc1 (racemic) | 37.1
18 | N#Cc1c(N)c(C#N)c(-c2ccc(F)cc2)c2c1CC(c1ccc(Cl)cc1)S2 (racemic) | 39.2
19 | Cc1ccc(-c2c(C#N)c(N)c(C#N)c3c2SC(c2ccccc2)C3)cc1 (racemic) | 9.62
20 | N#Cc1c(N)c(C#N)c(-c2ccc(Br)cc2)c2c1CC(c1ccccc1)S2 (racemic) | 37.9
